The target in one data set is CYP3A4 (Homo sapiens, UniProt P08684). In words: Metabolism by CYP enzymes (in vitro data). Type of data set: in vitro ADME. The text has this: The weak inhibitory effect of ciclosporin on hepatic CYP3A4 is unlikely to relevantly impact the PK of KRP203.
The next data set deals with hERG channels (Homo sapiens, UniProt Q12809). Kind of data set: hERG channel inhibition in vitro. In kind it is biochemical. The note with it: between 0.5 and 10 μM. The text has this:
(§1) Based on the available in vitro and in vivo data, except for the potential to cause a negative chronotropic effect and some mild increase in blood pressure, there is no indication that KRP203 would cause arrhythmia or QT prolongation in man.

Data set [1] relates to respiratory function in dogs. Kind of data set: Safety pharmacology: respiratory function in dogs. To be noted: doses up to 20 mg/kg (highest dose tested). Type of data set: in vivo, dog.
Text: as §1

The test system of another data set is chromosome aberration. Kind of data set: In vitro genotoxicity: chromosome aberration. In kind it is cell-based.
Data set [2] relates to bronchoconstrictor response induced by challenge agents. Kind of data set: Safety pharmacology: bronchoconstrictor response in rats. In kind it is in vivo, rat. The note with it: rats pre-treated with 3 mg/kg.
Text: as §1

A further data set deals with micronucleus. In words: In vivo micronucleus study in mice. Further details: species or system mouse.
In data set [3] the test system is neuropharmacological effects. In words: Safety pharmacology: neuropharmacological effects in rats. Type of data set: in vivo, rat. The note with it: doses up to 2000 mg/kg, except some piloerection.
The next data set concerns heart rate. In words: Heart rate in isolated rabbit heart or guinea pig.
Text: as §1

The subject of the next data set is dogs. Kind of data set: Acute toxicity in dogs. In kind it is in vivo, dog. As to the method:
No mortality was seen following single oral dosing in dogs up to 2000 mg/kg.

A further data set deals with QT prolongation. Kind of data set: QT prolongation in telemetered dogs. In kind it is in vivo, dog.
Text: as §1

The test system of data set [4] is allogeneic-stimulated T cell proliferation. Kind of data set: Mixed lymphocyte reactions (MLR). In kind it is cell-based. To be noted: therapeutic concentrations in vitro. An excerpt: (§2) KRP203 reduces lymphocyte counts in peripheral blood by more than 80%.
For data set [5] the following is noted: dog, in vivo.
Data set [6] concerns pulmonary endothelial barrier. In words: Pulmonary endothelial barrier after single oral dose. Type of data set: in vivo.
Text: as §1

The test system of a further data set is bacterial mutation. Kind of data set: In vitro genotoxicity: bacterial mutation. In kind it is cell-based.
The target of data set [7] is CYP3A4 via the human PXR receptor (Homo sapiens, UniProt O75469). In words: CYP3A4 induction via PXR. In kind it is in vitro ADME.
Chain of CYP3A4 via the human PXR receptor (O75469 whole entry): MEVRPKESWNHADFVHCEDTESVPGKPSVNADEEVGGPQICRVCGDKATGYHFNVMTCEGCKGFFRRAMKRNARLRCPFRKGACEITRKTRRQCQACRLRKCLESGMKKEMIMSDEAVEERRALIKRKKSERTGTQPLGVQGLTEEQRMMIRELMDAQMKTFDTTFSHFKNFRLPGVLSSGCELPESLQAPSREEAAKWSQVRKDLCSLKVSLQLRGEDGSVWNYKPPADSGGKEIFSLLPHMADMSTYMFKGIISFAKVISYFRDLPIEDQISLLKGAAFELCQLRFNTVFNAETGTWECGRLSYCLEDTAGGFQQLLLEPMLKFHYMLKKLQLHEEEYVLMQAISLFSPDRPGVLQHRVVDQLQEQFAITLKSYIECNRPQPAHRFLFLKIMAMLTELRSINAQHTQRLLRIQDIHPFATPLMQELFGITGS
The test system of data set [8] is guinea pig papillary muscle preparation. In words: APD in guinea pig papillary muscle preparation. To be noted: concentrations of 3 μM.
Text: as §1

The test system of the next data set is rats. In words: Acute toxicity in rats. Type of data set: in vivo.
The test system of data set [9] is hematological cytotoxicity. In words: Hematological cytotoxicity in vitro. Type of data set: cell-based. To be noted: therapeutic concentrations in vitro.
Text: as §2

For a further data set, the system named is blood pressure. Kind of data set: Blood pressure in dogs. In kind it is in vivo, dog.
Text: as §1

A further data set has as its system eye irritation. In words: Eye irritation. To be noted: in vivo.
The test system of data set [10] is contact sensitizing potential. In words: Contact sensitization. The note with it: in vivo.

Read-outs that look alike come from different tables or passages of the source.

Chain of CYP3A4 (P08684 whole entry): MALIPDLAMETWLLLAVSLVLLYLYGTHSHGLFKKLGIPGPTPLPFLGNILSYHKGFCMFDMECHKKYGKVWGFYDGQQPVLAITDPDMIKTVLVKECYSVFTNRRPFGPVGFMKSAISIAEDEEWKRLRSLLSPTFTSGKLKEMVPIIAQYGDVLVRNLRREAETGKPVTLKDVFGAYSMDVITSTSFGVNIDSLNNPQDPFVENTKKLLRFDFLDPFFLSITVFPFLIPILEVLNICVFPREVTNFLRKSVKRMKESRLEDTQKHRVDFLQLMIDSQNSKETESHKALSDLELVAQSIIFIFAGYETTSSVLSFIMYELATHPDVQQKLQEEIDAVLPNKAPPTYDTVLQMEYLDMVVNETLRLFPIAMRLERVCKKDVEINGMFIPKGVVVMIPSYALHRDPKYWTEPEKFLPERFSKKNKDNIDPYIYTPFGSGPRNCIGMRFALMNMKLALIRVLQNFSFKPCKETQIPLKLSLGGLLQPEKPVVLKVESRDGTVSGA
Chain of hERG channels (Q12809 whole entry): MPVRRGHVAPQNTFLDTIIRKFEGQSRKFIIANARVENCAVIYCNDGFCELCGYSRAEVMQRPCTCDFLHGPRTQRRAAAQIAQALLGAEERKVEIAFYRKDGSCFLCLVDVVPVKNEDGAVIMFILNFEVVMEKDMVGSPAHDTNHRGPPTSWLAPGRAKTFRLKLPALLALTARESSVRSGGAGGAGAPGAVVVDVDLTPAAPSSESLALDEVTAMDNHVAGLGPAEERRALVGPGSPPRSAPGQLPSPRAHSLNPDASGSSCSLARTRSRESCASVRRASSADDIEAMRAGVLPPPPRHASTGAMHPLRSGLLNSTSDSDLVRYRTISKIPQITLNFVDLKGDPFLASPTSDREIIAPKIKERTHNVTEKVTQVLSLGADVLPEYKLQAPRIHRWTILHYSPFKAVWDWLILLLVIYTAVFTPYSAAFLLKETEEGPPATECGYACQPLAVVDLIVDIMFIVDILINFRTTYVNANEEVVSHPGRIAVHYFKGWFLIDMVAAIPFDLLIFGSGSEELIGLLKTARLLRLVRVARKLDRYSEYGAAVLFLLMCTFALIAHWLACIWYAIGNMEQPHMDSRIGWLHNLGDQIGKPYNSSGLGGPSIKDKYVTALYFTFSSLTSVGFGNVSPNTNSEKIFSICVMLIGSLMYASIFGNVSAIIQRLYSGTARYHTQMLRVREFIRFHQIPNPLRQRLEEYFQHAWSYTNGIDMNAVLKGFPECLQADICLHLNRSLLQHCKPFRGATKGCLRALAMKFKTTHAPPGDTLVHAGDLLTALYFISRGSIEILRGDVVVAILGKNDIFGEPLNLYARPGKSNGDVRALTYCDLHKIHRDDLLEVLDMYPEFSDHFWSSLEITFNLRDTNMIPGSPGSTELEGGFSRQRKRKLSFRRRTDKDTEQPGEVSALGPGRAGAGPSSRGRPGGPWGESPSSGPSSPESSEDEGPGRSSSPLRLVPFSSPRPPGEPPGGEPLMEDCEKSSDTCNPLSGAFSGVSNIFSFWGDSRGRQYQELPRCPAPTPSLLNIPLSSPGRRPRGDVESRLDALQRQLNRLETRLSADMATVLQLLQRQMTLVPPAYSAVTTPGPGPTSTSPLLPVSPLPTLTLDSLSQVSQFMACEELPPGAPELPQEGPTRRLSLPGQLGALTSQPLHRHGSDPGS

Consider `NC(CO)(CO)CCc1ccc(Sc2cccc(OCc3ccccc3)c2)cc1Cl` [KRP203, 2-amino-2-[4-(3-benzyloxyphenylthio)-2-chlorophenyl] ethyl-propane-1,3-diol], for which the “metabolism by CYP enzymes” value at CYP3A4 was “only to a limited extent”; at CYP3A4 (listed as Mocravimod), “mainly metabolized by the enzyme CYP3A4”. The “inhibition of hERG channels” value at hERG channels is “slight inhibitory potential”. In addition, in data set [1], the “effects on respiratory function” value is on record as “no significant effects”. Further, the genotoxic potential entry in the data set with chromosome aberration, in the data set on micronucleus and with bacterial mutation was “no evidence for a genotoxic potential” in each case. For the same molecule, the “effects on bronchoconstrictor response induced by challenge agents” value in data set [2] was “no significant effects”. Also, the neuropharmacological effects entry in [3] is “no adverse neuropharmacological effects”. Further, the “potential to decrease heart rate, extrapolated exposure” value with heart rate is 20.1 µM. In addition, in the data set with dogs, the “no mortality following single oral dosing up to” value is on record as “up to 2000 mg/kg”. Moreover, in the data set on QT prolongation, the QT prolongation entry was “No indication for QT prolongation”. In data set [4], the “inhibition of allogeneic-stimulated T cell proliferation” value is “does not inhibit”. In data set [5], the “accumulation after repeated dosing (4 and 13 weeks)” value is given as “no evidence of accumulation”. The “effect on pulmonary endothelial barrier” value in data set [6] is on record as “mildly decreased pulmonary endothelial barrier”. In addition, in data set [7], the “no significant induction of CYP3A4 via the human PXR receptor up to concentration” value was no more than 6.15 µM. Also, in data set [8], the APD prolongation entry is on record as “No APD prolongation”. For the same molecule, the “intravenous dose producing lethality” value in the data set with rats was “above 50 mg/kg”. The “oral dose producing lethality” value in the data set on rats is on record as 1000 mg/kg. Besides, the exhibits hematological cytotoxicity result in [9] is “does not”. For the same molecule, the “potential to increase blood pressure, extrapolated exposure” value with blood pressure was 20.3 µM. In addition, in the data set on eye irritation, the eye irritation entry was “marked eye irritation”. Besides, the contact sensitizing potential result in data set [10] is on record as “does not have a contact sensitizing potential”.

The values are drawn from patent publication US20230130403A1, “METHODS OF TREATMENT WITH S1P RECEPTOR MODULATORS” (PRIOTHERA SAS, priority 2021, published 2023).
